Calls of active or inactive are those of the source.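 The calls were made as follows: active = compound that lowers ATP signal in parent HT1080 cells at potency within fivefold of its primary screen potency; inactive = the rest.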
System: HT1080 viability, ATPLite luminescence, overnight
Test: viability loss in HT1080 cells – cell-based, ATPLite luminescence, cytotoxicity control for MT1-MMP activation inhibitor project, SAR follow-up (AID 652267)

SMILES	IC50
Cc1c(C(=O)OCC(=O)NCC2CCCO2)oc2ccccc12 (stereo unspecified)	30.3 µM (inactive)
CCn1c(=O)c(=O)[nH]c2cc(C(=O)NC3CCCc4ccccc43)ccc21 (stereo unspecified)	15.5 µM
O=Nc1c(-c2c(O)[nH]c3cc(Br)ccc23)[nH]c2ccccc12	36.9 µM (inactive)
COc1ccc(C)cc1Nc1nc(-c2c(C)[nH]c3ccccc23)cs1	> 80 µM (inactive)
CN1/C(=C/C=C/c2n(C)c3cc([N+](=O)[O-])c([N+](=O)[O-])cc3[n+]2C)C(C)(C)c2ccccc21	40.2 µM (inactive)
CN1/C(=C\C(=O)c2cncc(Br)c2)C(C)(C)c2ccccc21	> 80 µM (inactive)

From PubChem BioAssay AID652267 (Sanford-Burnham Center for Chemical Genomics, 2013)
